In ChEMBL document CHEMBL1156625, “NMR screening for lead compounds using tryptophan-mutated proteins” (J Med Chem, 2008):

Experiments:
[1] = target: Cyclin-dependent kinase 2 (Homo sapiens, UniProt P24941); test: Binding affinity to CDK2
[2] = target: Epidermal growth factor receptor (Homo sapiens, UniProt P00533); test: Inhibition of EGFR
[3] = Inhibition of PKC
[4] = Inhibition of PKA

Sequence of Epidermal growth factor receptor (P00533 whole entry): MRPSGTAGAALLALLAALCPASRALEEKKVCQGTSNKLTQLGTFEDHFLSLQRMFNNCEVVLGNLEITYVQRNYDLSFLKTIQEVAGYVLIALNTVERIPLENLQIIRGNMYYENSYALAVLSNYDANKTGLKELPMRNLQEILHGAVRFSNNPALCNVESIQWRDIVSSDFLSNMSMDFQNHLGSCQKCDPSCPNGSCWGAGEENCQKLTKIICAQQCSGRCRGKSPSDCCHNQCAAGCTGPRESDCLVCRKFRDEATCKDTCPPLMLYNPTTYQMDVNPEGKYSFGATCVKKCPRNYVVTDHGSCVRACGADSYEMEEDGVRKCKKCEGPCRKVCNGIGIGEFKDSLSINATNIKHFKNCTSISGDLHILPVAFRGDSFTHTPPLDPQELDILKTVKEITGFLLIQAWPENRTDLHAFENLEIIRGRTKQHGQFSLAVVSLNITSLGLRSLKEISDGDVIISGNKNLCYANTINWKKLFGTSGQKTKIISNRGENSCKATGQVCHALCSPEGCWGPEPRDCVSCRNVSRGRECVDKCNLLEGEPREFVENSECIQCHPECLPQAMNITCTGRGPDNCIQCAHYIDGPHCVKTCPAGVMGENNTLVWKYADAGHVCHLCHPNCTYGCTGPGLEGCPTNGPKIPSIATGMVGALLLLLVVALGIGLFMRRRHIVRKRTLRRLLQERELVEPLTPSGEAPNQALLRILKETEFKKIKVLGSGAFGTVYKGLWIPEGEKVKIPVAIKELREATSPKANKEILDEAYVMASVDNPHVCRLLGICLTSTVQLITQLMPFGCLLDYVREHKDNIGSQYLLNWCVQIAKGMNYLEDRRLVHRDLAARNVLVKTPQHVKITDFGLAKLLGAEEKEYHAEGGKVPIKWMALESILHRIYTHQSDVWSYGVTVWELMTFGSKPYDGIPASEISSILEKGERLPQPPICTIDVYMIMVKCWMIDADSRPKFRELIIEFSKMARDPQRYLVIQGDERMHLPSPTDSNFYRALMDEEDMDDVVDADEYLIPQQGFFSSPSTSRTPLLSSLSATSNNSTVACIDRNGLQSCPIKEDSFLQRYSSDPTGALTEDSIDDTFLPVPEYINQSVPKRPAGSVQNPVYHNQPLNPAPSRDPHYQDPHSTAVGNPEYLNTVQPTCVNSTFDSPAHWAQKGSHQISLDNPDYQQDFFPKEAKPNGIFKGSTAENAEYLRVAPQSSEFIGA

Kd [1]: 100 µM | IC50 [2]: 16 µM | IC50 [3]: > 500 µM | IC50 [4]: > 500 µM
Structure (SMILES): O=C(/C=C/c1ccc(O)c(O)c1)c1ccc(O)cc1O [BUTEIN]
